Test results as given in patent publication US20250270180A1, “MEK INHIBITORS AND THERAPEUTIC USES THEREOF” (Immuneering Corporation, priority 2020, published 2025).

Experiments:
hERG Channel = hERG Channel (Homo sapiens, UniProt Q12809); experiment: in vitro
[1] = Microsome stability, CD-1 mouse; settings: microsomes, 2 μM
CYP450 2C19 = CYP450 2C19 (Homo sapiens, UniProt P33261); experiment: CYP450 panel, 2C19; settings: 10 μM; substrate mephenytoin
CYP450 2B6 = target: T1, CYP450 2B6 (Homo sapiens, UniProt P20813); experiment: CYP450 panel, 2B6; settings: 10 μM; substrate bupropion
T1 sequence (P20813 1-491): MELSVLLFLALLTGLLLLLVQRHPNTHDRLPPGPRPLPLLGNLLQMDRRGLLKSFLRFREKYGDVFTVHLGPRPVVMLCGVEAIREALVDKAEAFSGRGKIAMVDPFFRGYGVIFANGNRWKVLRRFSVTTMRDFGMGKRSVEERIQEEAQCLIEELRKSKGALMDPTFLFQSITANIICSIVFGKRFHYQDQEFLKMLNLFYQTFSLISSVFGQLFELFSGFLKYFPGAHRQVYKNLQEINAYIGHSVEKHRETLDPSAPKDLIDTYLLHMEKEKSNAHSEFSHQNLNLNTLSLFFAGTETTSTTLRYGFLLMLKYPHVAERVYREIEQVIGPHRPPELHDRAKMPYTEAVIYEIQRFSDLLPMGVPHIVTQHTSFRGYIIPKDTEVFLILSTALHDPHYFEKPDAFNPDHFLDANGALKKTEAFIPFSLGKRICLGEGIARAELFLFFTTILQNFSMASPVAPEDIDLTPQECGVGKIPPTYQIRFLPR

CYP450 2C9 = CYP450 2C9 (Homo sapiens, UniProt P11712); experiment: CYP450 panel, 2C9; settings: 10 μM; substrate Diclofenac
Chain of CYP450 2C9 (P11712 whole entry): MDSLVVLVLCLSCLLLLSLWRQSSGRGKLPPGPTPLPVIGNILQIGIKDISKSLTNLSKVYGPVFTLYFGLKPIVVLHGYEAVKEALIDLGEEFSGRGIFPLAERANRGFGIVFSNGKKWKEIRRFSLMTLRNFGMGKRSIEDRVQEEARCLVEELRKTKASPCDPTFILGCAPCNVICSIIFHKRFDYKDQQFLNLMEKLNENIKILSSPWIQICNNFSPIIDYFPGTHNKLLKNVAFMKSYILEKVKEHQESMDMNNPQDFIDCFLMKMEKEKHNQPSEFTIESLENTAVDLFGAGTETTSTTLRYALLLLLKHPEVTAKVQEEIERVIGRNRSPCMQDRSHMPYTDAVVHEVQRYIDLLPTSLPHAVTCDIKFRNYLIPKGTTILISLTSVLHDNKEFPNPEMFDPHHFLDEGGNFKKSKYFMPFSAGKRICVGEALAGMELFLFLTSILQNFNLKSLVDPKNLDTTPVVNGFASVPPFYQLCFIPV

[2] = Microsome stability, human; assay type: in vitro ADME; settings: microsomes, 2 μM
[3] = Microsome stability, beagle dog; assay type: in vitro ADME; settings: microsomes, 2 μM
CYP450 1A2 = target: T2, CYP450 1A2 (Homo sapiens, UniProt P05177); experiment: CYP450 panel, 1A2; assay type: in vitro ADME; settings: 10 μM; substrate phenacetin
T2 sequence (P05177 1-516): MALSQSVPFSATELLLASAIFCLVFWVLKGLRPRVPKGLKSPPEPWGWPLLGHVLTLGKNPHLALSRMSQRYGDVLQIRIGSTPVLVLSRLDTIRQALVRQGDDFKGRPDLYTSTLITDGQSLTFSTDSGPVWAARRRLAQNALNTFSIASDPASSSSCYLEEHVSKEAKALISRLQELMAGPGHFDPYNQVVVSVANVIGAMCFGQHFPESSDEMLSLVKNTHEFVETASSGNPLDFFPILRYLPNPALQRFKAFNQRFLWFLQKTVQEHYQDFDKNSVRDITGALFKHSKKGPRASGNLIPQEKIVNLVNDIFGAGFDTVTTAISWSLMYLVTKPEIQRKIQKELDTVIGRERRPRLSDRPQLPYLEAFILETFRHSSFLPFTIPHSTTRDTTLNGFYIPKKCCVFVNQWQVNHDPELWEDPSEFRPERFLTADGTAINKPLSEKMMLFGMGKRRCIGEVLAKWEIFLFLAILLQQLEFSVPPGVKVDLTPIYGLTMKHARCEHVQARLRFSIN

[4] = Plasma stability, CD-1 mouse; assay type: in vitro ADME; settings: 2 μM
CYP450 3A4 = CYP450 3A4 (Homo sapiens, UniProt P08684); experiment: CYP450 panel, 3A4; settings: 10 μM
Chain of CYP450 3A4 (P08684 whole entry): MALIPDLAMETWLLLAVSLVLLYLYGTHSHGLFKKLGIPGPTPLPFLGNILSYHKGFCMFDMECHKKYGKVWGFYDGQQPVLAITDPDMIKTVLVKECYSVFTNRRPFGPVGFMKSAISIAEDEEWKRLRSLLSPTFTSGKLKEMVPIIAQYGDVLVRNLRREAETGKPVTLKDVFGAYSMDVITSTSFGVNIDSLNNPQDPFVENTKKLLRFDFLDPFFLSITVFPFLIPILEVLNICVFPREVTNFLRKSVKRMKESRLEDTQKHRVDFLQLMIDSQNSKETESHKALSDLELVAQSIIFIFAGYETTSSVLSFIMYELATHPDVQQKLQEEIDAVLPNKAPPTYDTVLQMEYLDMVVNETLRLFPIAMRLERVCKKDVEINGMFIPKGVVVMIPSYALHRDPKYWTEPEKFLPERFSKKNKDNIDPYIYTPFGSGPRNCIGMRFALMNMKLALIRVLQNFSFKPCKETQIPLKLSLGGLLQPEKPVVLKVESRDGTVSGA

[5] = Plasma stability, beagle dog; assay type: in vitro ADME; settings: 2 μM
CYP450 2C8 = target: T3, CYP450 2C8 (Homo sapiens, UniProt P10632); experiment: CYP450 panel, 2C8; settings: 10 μM; substrate amodiaquine
T3 sequence (P10632 1-490): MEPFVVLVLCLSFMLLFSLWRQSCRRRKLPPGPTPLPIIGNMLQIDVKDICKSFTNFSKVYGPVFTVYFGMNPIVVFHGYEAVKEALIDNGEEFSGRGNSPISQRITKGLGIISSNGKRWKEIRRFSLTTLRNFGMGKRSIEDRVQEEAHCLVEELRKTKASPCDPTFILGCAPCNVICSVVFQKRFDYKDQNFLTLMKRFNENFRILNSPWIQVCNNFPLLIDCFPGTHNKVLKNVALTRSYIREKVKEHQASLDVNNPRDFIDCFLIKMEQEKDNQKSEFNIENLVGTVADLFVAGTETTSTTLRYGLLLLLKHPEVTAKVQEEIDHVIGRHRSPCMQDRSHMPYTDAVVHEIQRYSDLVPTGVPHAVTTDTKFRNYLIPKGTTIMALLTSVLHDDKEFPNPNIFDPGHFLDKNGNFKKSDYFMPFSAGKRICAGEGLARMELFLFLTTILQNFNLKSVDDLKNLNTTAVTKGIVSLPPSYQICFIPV

Plasma stability, human = assay type: in vitro ADME; settings: 2 μM
CYP450 2D6 = CYP450 2D6 (Homo sapiens, UniProt P10635); experiment: CYP450 panel, 2D6; settings: 10 μM; substrate dextromethophan
Chain of CYP450 2D6 (P10635 whole entry): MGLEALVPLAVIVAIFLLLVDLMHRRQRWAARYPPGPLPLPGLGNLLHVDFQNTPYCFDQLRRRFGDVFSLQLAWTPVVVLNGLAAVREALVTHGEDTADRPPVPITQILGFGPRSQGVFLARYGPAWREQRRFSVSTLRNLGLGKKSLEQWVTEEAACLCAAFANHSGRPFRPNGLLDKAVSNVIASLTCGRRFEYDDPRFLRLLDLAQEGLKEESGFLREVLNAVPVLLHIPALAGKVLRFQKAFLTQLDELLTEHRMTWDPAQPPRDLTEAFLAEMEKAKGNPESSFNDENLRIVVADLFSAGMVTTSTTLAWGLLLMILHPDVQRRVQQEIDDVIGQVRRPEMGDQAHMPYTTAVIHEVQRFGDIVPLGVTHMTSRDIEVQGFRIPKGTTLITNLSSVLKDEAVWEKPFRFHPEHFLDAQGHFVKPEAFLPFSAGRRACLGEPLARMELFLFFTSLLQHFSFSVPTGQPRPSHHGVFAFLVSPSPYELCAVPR

Chain of hERG Channel (Q12809 whole entry): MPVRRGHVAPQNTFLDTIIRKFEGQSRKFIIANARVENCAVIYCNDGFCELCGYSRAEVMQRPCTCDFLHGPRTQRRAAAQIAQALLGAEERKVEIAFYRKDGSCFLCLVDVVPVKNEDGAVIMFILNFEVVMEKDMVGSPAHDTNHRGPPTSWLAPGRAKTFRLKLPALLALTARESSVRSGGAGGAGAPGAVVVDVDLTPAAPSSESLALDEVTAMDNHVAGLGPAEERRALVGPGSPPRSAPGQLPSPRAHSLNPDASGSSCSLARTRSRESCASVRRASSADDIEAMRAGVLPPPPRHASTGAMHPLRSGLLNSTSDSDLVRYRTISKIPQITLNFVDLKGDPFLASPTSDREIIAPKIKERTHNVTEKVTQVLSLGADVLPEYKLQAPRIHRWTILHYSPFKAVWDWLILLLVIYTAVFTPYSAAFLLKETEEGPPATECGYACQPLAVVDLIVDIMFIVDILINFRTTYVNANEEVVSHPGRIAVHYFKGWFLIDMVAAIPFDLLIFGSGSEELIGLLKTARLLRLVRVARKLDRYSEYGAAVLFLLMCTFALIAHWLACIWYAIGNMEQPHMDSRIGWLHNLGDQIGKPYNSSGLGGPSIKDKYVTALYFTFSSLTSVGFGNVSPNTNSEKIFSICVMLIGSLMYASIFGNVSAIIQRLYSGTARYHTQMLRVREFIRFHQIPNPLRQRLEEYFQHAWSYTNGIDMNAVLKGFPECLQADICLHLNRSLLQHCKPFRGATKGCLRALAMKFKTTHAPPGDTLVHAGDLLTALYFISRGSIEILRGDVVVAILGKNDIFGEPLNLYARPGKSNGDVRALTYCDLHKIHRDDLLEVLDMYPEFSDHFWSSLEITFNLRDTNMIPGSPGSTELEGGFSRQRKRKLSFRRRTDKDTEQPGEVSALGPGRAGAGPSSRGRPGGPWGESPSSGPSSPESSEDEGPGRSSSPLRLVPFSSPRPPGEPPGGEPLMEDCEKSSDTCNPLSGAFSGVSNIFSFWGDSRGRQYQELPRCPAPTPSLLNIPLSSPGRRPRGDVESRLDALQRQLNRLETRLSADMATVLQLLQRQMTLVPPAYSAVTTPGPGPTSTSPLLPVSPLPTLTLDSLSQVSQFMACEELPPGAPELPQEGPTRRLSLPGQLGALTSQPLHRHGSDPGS
Chain of CYP450 2C19 (P33261 whole entry): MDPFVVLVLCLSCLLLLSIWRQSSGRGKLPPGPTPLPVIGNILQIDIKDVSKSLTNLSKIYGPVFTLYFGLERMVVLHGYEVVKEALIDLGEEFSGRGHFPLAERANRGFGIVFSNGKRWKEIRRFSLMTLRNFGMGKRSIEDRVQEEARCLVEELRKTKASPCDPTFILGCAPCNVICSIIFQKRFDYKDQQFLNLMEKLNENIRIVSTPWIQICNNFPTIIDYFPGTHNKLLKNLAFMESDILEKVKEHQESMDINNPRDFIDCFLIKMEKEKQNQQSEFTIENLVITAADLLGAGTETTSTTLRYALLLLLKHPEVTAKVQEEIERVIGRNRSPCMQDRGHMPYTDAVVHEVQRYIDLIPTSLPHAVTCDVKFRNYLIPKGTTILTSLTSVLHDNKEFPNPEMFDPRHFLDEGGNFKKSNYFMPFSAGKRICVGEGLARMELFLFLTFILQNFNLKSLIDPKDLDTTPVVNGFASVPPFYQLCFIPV

CNS(=O)(=O)Nc1cccc(Cc2c(C)c3ccc(OC(=O)N(C)C)cc3oc2=O)c1F [Compound 7]
IC50 (hERG Channel): 28.6 µM | CD-1 Mouse (% Reamining @1 hour) [1]: 29.6% | 2C19* (CYP450 2C19): 11.6 | 2B6* (CYP450 2B6): 28.5 | 2C9* (CYP450 2C9): 33.8 | Human (% Reamining @1 hour) [2]: 61.1% | Beagle Dog (% Reamining @1 hour) [3]: 57.0% | 1A2* (CYP450 1A2): 0.3 | CD-1 Mouse (% Reamining @2 hour) [4]: 56.5% | 3A4* (CYP450 3A4; substrate midazolam): 29.9 | 3A4^ (CYP450 3A4; substrate testosterone): 59.7 | Beagle Dog (% Reamining @2 hour) [5]: 99.8% | 2C8* (CYP450 2C8): 14.4 | Human (% Reamining @2 hour) (Plasma stability, human): 88.1% | 2D6* (CYP450 2D6): −7.4
